Some results are limits rather than exact numbers.

In data set [1] the test system is RPMI-8226 myeloma cell line. In words: O2 consumption with a Clark electrode. It counts as cell-based, human. How it is done:
Respiratory rates of both cell lines were maintained through repeated additions of 10 μM 2-OMeA, to a final concentration of 90 μM. […] Real-time glucose consumption and lactate production by TAMH cells grown on microcarrier beads was monitored using a novel microsequential injection-lab on valve (μSI-LOV) system (Schulz et al., Analyst 127:1293-1298, 2002). […] Since 2-OMeA has no effect on cellular respiration at these concentrations, 2-OMeA induced aerobic glycolysis in TAMH cells. The glycolytic response to 2-OMeA was proportional to cellular BCl-xL protein expression.

For a further data set, the system named is plasma proteins. In words: Binding to plasma proteins (ultrafiltration). It counts as in vitro ADME, mouse. As to conditions: presence of NaF+EDTA, 1000 ng/ml. How it is done: Solutions of 2-OMe antimycin A3 were diluted with plasma (dog or human) containing NaF+EDTA to final concentrations of 1.0 or 0.2 μg/ml. Controls were diluted with water to the same final concentrations. These preparations were incubated at 37° C. for 20 min, at which time portions were taken and placed in the sample reservoirs of Amicon Centrifree® ultrafiltration systems (Millipore Co., Bedford, Mass.). At 37° C., the filter systems were centrifuged until the reservoirs were dry. From each filtrate, portions were taken for analysis by HPLC. The amounts present were designated as “free drug” (F). The concentrations of the unfiltered solutions were also determined by triplicate analyses. This amount represented the “total drug” concentration (T). The percentage of 2-OMe antimycin A3 bound to plasma proteins was calculated by the following formula: % bound=((T−F)/T)×100

In data set [2] the target is T1, recombinant human Bcl-2ΔC22 (Homo sapiens, UniProt P10415).
T1 construct: poly-His (N); made in house
T1 sequence (P10415 1-217 limits assumed, stated change not applied): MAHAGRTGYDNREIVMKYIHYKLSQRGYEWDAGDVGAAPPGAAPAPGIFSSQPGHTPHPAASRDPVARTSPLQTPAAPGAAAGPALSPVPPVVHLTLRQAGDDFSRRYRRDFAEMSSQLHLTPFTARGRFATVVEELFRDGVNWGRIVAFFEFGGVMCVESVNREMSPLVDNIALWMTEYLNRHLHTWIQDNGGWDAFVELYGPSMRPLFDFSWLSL
In words: Antimycin A3 fluorescence binding and competition assay. As to conditions: 2 μM each, Bcl-2 3 μM, 7.5 minutes, 22.5° C. How it is done: In this assay, 0 to 5 μM antimycin A3 (Sigma Chemical Co., St. Louis, Mo.) was added to a physiological buffer (50 mM Tris-HCl pH 8.0, 0.2 M NaCl, 2 mM EDTA, 0.5% v/v glycerol) containing recombinant Bcl-2 or BCl-xL protein under conditions that permitted antimycin A3 to bind to the BH3-binding domain of Bcl-2 or BCl-xL (22.5° C. on a Hitachi F-2500 fluorescence spectrofluorimeter equipped with a thermostatted cell holder). […] The excitation wavelength was 335 nm, and the maximum emission wavelength for antimycin A3 was 428 nm with a slit width of 10 nm. The samples were mixed in a quartz cuvette and checked for inner filter effect over the concentration range of antimycin A3 used for this study. Blanks containing antimycin A3 at the same concentration as the experimental samples were used as controls in all measurements and necessary background corrections were made.
Recombinant human Bcl-2ΔC22 (a recombinant human Bcl-2 with a delection of 22 amino acid residue membrane anchor sequence from the carboxyl end) and mouse Bcl-xLΔC20 (a recombinant murine BCl-xL with a delection of the 20 amino acid residue membrane anchor sequence from the carboxyl end) fused with poly-His at the N-terminus were chromatographically purified to homogeneity. The concentrations of antimycin A3 and stock solutions of recombinant proteins were quantitated using an extinction coefficient of 7.24/mM/cm at 320 nm and by Bradford assay, respectively. The stoichiometric ratio of antimycin A3 and Bcl-2 producing the maximal change in antimycin A3 fluorescence was determined with incremental addition of antimycin A3 to a 1.98 μM solution of recombinant Bcl-2 in a volume of 2.1 milliliters. […] For peptide displacement experiments, a solution of 2 μM antimycin A3 and 3 μM Bcl-2 was allowed to reach binding equilibrium at 4° C. prior to fluorescence measurements. Native peptide corresponding to the BH3 domain of Bak (72-[…]87 (SEQ ID NO:1)) or a mutant peptide with a single amino acid change (Leu78Ala-BH3) was added to the solution and the fluorescence measurements were repeated. […]

Data set [3] can be described thus: Stability in solution at pH 7.4 (no S9). It is filed as physicochemical. As to conditions: pH 7.4, absence of S9 proteins.
The next data set has as its system TAMH.neo control cells. In words: Cellular respiration by oximetry. It counts as cell-based, murine. As to conditions: higher concentrations (above 1 μg/ml). How it is done:
(§1) Briefly, TABX2S cells (over-expressing Bcl-xL) and control cells (TAMH.neo) were suspended in air-equilibrated complete medium at a density of 3 million cells per milliliter and placed in a thermostatted electrode chamber at 37° C.

Another data set concerns TABX2S cells. Put plainly: Cellular respiration by oximetry. It counts as cell-based, murine. As to conditions: higher concentrations (above 1 μg/ml). Here is the method:
as §1

Consider 2-methoxy antimycin A [2-OMeA], for which the respiratory rate entry in data set [1] (repeated additions of 10 μM to a final concentration of 90 μM) is recorded as “maintained”.
`CCCCCC[C@H]1C(=O)O[C@H](C)[C@H](NC(=O)c2cccc(NC=O)c2OC)C(=O)O[C@@H](C)[C@@H]1OC(=O)CC(C)C` [2-OMeA1, 2-methoxy antimycin A1]: the “Protein binding, Mouse” value with plasma proteins is recorded as 99.0%.
As to `CCCC[C@H]1C(=O)OC(C)[C@H](NC(=O)c2cccc(NC=O)c2OC)C(=O)O[C@@H](C)C1OC(=O)CC(C)C` (some centres unmarked) [2-OMeA3, Antimycin A3 methyl ether], the “competition with antimycin A3 for Bcl-2” value in data set [2] was “competition for the antimycin A3 binding site”. For the same molecule, in data set [3], the stability in solution entry was “not stable”. The “Protein binding, Mouse” value with plasma proteins was 99.1%.
antimycin A: the dampening of respiration in data set [1] (10 μM) was above 90%. Moreover, in the data set on TAMH.neo control cells, the oxygen consumption result is on record as “almost completely inhibited”. Also, the “basal oxygen consumption maintained” value in the data set on TABX2S cells was “about 20%”.
